One compound from article PMC9743090, “Induction of Ferroptosis in Glioblastoma and Ovarian Cancers by a New Pyrrole Tubulin Assembly Inhibitor” (Journal of Medicinal Chemistry, 2022) can be followed below.

Structures are written as SMILES. Where “and” joins values, the source holds several entries; their conditions need not be identical. Equal entries are not always repeated. Entries after “also recorded” stand apart in the source; their conditions may differ.

In one series the test system is tubulin. The experiment in a line: Inhibition of tubulin polymerization (assembly assay). Type of series: biochemical. To be noted: tubulin at 10 μM, read-out: Tubulin IC50 ± SD. The procedure:
The assembly reaction mixtures contained 0.8 M monosodium glutamate (pH 6.6 with HCl in a 2 M stock solution), 10 μM tubulin, 4% (v/v) DMSO, and varying concentrations of the drug. Following a 15 min preincubation at 30 °C, samples were chilled on ice, GTP to 0.4 mM was added, and turbidity development was followed at 350 nm in a temperature-controlled recording spectrophotometer for 20 min at 30 °C. The extent of reaction was measured. Full experimental details were previously described.[63] For the colchicine binding assay, reaction mixtures contained 1.0 μM tubulin, 5.0 μM [^3H]colchicine, and 5.0 or 1.0 μM inhibitor and were incubated for 10 min at 37 °C. Complete details were described previously.[64]

In series [1] the test system is MCF-7 human breast carcinoma cells. The experiment in a line: Inhibition of the growth of MCF-7 human breast carcinoma cells. Type of series: cell-based. The procedure:
(§1) The methodology for the evaluation of the growth of human MCF-7 breast carcinoma cells was previously described, except that cells were grown for 96 h for IC50 determinations.[66] U-87 MG and OVCAR-3 proliferation assays were performed plating 10^4 cells/cm^2 in a Multiwell 24. The day after, cells were treated with compound 15, and DMSO was used as a control. Cells were counted 48 h later with a Bürker counting chamber, after dilution in TrypanBlue (#T6146 Sigma-Aldrich).

The test system of the next series is U-87 MG GBM cells. The experiment in a line: U-87 MG proliferation assay (cell count, Trypan Blue). In kind it is cell-based. To be noted: Homo sapiens, 48 h incubation, read-out: IC50 cell viability U-87 MG. The method, then: as §1
(§2) All experiments were performed multiple times to reach statistical significance, as specified in the figure legends. Statistical analysis was performed using GraphPad Prism version 7.0 for Mac. IC50 values were calculated by using a nonlinear regression formula, using the percentage of cells number and the logarithmic value of drug concentrations. Data were analyzed with analysis of variance (one-way ANOVA test). Data with *p < 0.05 were considered statistically significant.

The subject of a further series is OVCAR-3 OC cells. The experiment in a line: OVCAR-3 proliferation assay (cell count, Trypan Blue). Type of series: cell-based. To be noted: Homo sapiens, 48 h incubation, read-out: IC50 cell viability OVCAR-3. The procedure: as §1, §2
Series [2] deals with PARP cleavage in U-87 MG cells. The experiment in a line: PARP cleavage by western blot in U-87 MG cells. In kind it is cell-based, human. To be noted: immunoblotting. The procedure: Western blotting was performed as previously described[68] by lysing cells in denaturing buffer sodium dodecyl sulfate (SDS)–urea. Extracts were sonicated, their protein quantified, and aliquots were loaded into an SDS–polyacrylamide gel. After electrophoresis, the proteins in the gel were transferred onto a nitrocellulose membrane (cat. no. NBA085C001EA, PerkinElmer), which then was blocked with 5% milk in TBS-T (Tris HCl with 0.1% Tween 20) and incubated with primary antibodies overnight: PARP antibody diluted 1:1000 (cat. no. 9542S CST) and actin antibody diluted 1:10,000 (cat. no. A5441, Sigma Aldrich). The next day, the membrane was extensively washed with TBS-T and incubated with horse radish peroxidase (HRP)-conjugated secondary antibodies diluted in the 5% milk solution. Detection of the HRP signal was performed using ECL (cat. no. K-12045-D50, Advansta).
For orientation: In western blotting, separated proteins are transferred to a membrane and probed.

Series [3] has as its system human primary T lymphocytes. The experiment in a line: Toxicity on human primary T lymphocytes (annexin V / propidium iodide flow cytometry). In kind it is cell-based. The settings on record: 48 or 72 h. The procedure: Cell lines were obtained from the American Type Culture Collection (ATCC), Rockville, MD. U87 MG cells were cultured in minimum essential medium (MEM) supplemented with 10% fetal bovine serum, 1% penicillin/streptomycin, 1% glutamine, 1% sodium pyruvate, and 1% nonessential amino acids. OVCAR-3 cells were cultured in Dulbecco’s modified eagle medium (DMEM) purchased from Sigma Aldrich (cat. no. D6546) supplemented with 20% fetal bovine serum,1% penicillin/streptomycin, 1% glutamine, 1% sodium pyruvate, 1% Hepes, and 0.01 μg/mL insulin (Sigma Aldrich, cat. no. 19278). […] Healthy donors’ peripheral blood mononuclear cells (PBMCs) were isolated by Lymphoprep (Nycomed) gradient centrifugation. T lymphocytes were negatively selected from PBMCs using a magnetic Dynabeads Untouched Human T Cells Kit (Thermo Fisher Scientific) following the manufacturer’s instructions.
Apoptotic cell death was evaluated using the APC Annexin-V Apoptosis Detection Kit with PI (Thermo Fisher Scientific). Briefly, 1.5 × 10^6/mL cells were cultured in 48-well plates, untreated or treated with different concentrations of 15 for 48 or 72 h. Cells were then stained using annexin-V/APC and propidium iodide according to the manufacturer’s instructions. Cell populations were acquired using a FACS Canto II flow cytometer (BD Biosciences). […]
In general terms: A flow cytometer gives signals particle by particle.

The nature of series [4]: Metabolic stability in human liver microsomes. Type of series: in vitro ADME. The procedure:
(§3) Mouse (Sigma Aldrich, CD-1 male, pooled) and human microsomes (Sigma Aldrich, human, pooled) at 0.5 mg/mL were preincubated with the test compound 15 dissolved in DMSO at 1 μM in phosphate buffer 50 mM, pH 7.4, and 3 mM MgCl2 for 10 min at 37 °C. The reaction was then started by adding the cofactor mixture solution (NADP, glucose-6-phosphate, glucose-6-phosphate dehydrogenase in 2% NaHCO3). Samples were taken at 0, 10, 30, 45, and 60 min and added to acetonitrile to stop the reaction. Samples were then centrifuged, and the supernatant was analyzed by LC–MS/MS to quantify the amount of the compound. A control sample without the cofactor was always added to check the chemical stability of the test compound. […] A fixed concentration of verapamil was added in every sample as an internal standard for LC–MS/MS analyses. The percentage of the area of the test compound remaining at the various incubation times was calculated with respect to the area of the compound at time 0 min.
(§4) The rate constant, k (min^–1), derived for the exponential decay equation (peak area/IS vs time), was used to calculate the rate of Cli.
(§5) Samples were analyzed under the following conditions: UPLC Waters coupled with an API 3200 triple-quadrupole (ABSciex); eluents, (phase A) 95% water, 5% acetonitrile + 0.1% HCOOH, (phase B) 5% water, 95% acetonitrile + 0.1% HCOOH; flow rate, 0.3 mL/min; column, Gemini-Nx 5 μm C18 110A (50 × 2.00 mm) at 35 °C; injection volume, 10 μL. Source conditions ESI positive: T 400 °C, Gas 1 30, Gas 2 35, CUR 30, IS 5500, CAD 5.

Series [5] can be described thus: Metabolic stability in mouse liver microsomes. Type of series: in vitro ADME. The procedure: as §3, §4, §5
For orientation: Microsomes from liver hold many membrane-bound enzymes, among them those of drug oxidation.

As for `COc1cc(C(=O)c2cn(-c3ncccn3)cc2-c2ccco2)cc(OC)c1OC` [Compound 15, (4-(Furan-2-yl)-1-(pyrimidyl-2-yl)-1H-pyrrol-3-yl)(3,4,5-trimethoxyphenyl)methanone], the half-maximal inhibitory concentration (IC50) (in general, the concentration that gives 50% inhibition) was determined as 520 ± 70 nM in the series with tubulin; 4 ± 1 nM in series [1] (Homo sapiens, MCF7, inhibition of cell growth, cells grown for 96 h, read-out: MCF-7 IC50 ± SD); 10.1 nM in the series on U-87 MG GBM cells; 2.85 nM in the series with OVCAR-3 OC cells. In addition, the “Inhibition of MCF-7 cell growth (in words)” value in series [1] is on record as “strong inhibition”. Moreover, the “concentration from which PARP cleavage occurs” value in series [2] is given as ≥ 20 nM. Further, the “cell viability / toxicity” value is recorded as “did not change cell viability; also recorded: not toxic” in series [3] (0.1 μM) and “some cytotoxicity was observed” in series [3] (1.0 or 2.5 μM). Besides, the “Cli ± SD” value in series [4] (HLM 0.5 mg/mL, 1 μM, n = 2) was 36 μL/min/mg protein and 35.9 ± 0.2 μL/min/mg protein; in series [5] (MLM 0.5 mg/mL, 1 μM, n = 2), 461 μL/min/mg protein and 461.1 ± 45.5 μL/min/mg protein. The half-life at 1 h, 1 µM came to 38.7 ± 0.2 min in series [4] (human, liver microsomes, pH 7.4, HLM 0.5 mg/mL, 1 μM, n = 2, read-out: t1/2 ± SD) and 3 ± 0.3 min in series [5] (male, CD-1, mouse, liver microsomes, pH 7.4, MLM 0.5 mg/mL, 1 μM, n = 2, read-out: t1/2 ± SD). Moreover, the microsomal CLint at 1 μM is 1.8 to 48 µL/min/mg in series [4] (pH 7.4, human liver microsomes, read-out: intrinsic clearance classification) and > 66 µL/min/mg in series [5] (male, CD-1, pH 7.4, mouse liver microsomes, read-out: intrinsic clearance classification).
